Results: patent US20230255987A1, “AQUEOUS PHARMACEUTICAL COMPOSITION COMPRISING A P2Y12 RECEPTOR ANTAGONIST” (Idorsia Pharmaceuticals Ltd, priority 2020, published 2023)

Columns and labels:
platelet = conditions: patients with AMI, cited from earlier work
[1] = rat, at equivalent antithrombotic efficacy, versus ticagrelor; cited from earlier work
[2] = Stability of COMPOUND in aqueous solution at different pH values in the absence of a buffer (HPLC); type: physicochemical
Procedure: For instance, a solution of COMPOUND (32 mg/mL) in water at pH 7 (adjusted with aqueous NaOH solution) contained only 33.5% COMPOUND, but 65.2% (R)-2-(6-((S)-3-methoxypyrrolidin-1-yl)-2-phenylpyrimidine-4-carboxamido)-3-phosphonopropanoic acid (hereinafter DEGRADATION COMPOUND) if stored at 60° C. for 1 week (98.6% COMPOUND at t=0, i.e. immediately after preparation of the solution). The amount of DEGRADATION COMPOUND dropped to 24.4% and 10.0% for corresponding aqueous solutions stored under the same conditions but adjusted to pH 8.0 and 9.0, respectively.
(§1) Sample Preparation for High Performance Liquid Chromatography and Method Used • 20 μL of the respective aqueous pharmaceutical composition was filled into a HPLC vial. • 980 μL water was added (dilution factor 50) prior HPLC analysis. • HPLC-UV method used: • HPLC system: High pressure mixing Shimadzu Nexera X2 • Flow: 1.5 mL/min • Column temperature: 50° C. • Autosampler temperature: 25° C. • Injection volume: 1 μL • Column: Phenomenex Gemini 5.0 μm 110 Å, 50×2.0 mm (n° 184) • Wavelength: DAD+250 nm • Solvent A: tris(hydroxymethyl)aminomethane buffer 50 mM pH 9 (adjusted with HCl)+5% (v/v) acetonitrile • Solvent B: Acetonitrile+5% (v/v) tris(hydroxymethyl)aminomethane buffer 50 mM pH 9 (adjusted with HCl) • Gradient: […]
Aqueous formulations containing 32 mg/mL (52 mM) COMPOUND were titrated to pH 7.0, 8.0, and 9.0 using aqueous 1N NaOH solution.
The different formulations were filled into 1 mL sterile, pre-fillable glass syringes after sterile filtration. Samples were analyzed at t=0 and after 1-week storage at 60° C.

platelet aggregation = conditions: 15 minutes after subcutaneous administration, doses of 8 mg, 16 mg and 32 mg; cited from earlier work
[3] = pH shift of unbuffered, pH-adjusted aqueous solution of COMPOUND on storage; type: physicochemical; conditions: initial pH 9.0, 2 days at 70° C.
[4] = Stability of COMPOUND in aqueous solution at pH 9.0 with boric acid buffer at different buffer concentrations, 75° C.; type: physicochemical
Procedure: as §1
Stability of COMPOUND in aqueous solution at pH 9.0 in the presence of boric acid buffer at different buffer concentrations
Formulation compositions assessing the impact of buffer capacity on formulation stability

[5] = Long-term stability of COMPOUND in 60 mM arginine buffer under different storage conditions (UPLC); type: physicochemical
Procedure: In a 10 L glass reactor, L-arginine (104 g, 0.60 mol) was added under stirring to water for injection (7.01 kg). COMPOUND hydrochloride (339 g, 0.52 mol) was added portion wise to the solution and the pH value was adjusted to pH=9.0 by addition of 1.0 M aqueous NaOH solution (1.18 kg). Water for injection was added to a total weight of the solution of 10.15 kg.
For stability testing the test samples were prepared by filling 0.54 mL of the above solution into prefillable 1 mL glass syringes with stacked in needle and stored under the conditions given in table 14 and 15. The samples were analysed after the given timepoints by ultra-performance liquid chromatography (UPLC) using the following conditions: • Equipment: • UPLC system, with data acquisition system and UV detection
Mobile phase A: Weigh 3.08 g of ammonium acetate and 3.26 g of ammonium hexafluorophosphate in a 2 L bottle. Dissolve in 1900 mL H2O. Add 100 mL of acetonitrile.
Mobile phase B: Weigh 0.77 g of ammonium acetate in a 1 L bottle. Dissolve in 50 mL H2O. Add 950 mL of acetonitrile.
Diluent: Mix 920 mL of Mobile Phase A with 80 mL Mobile phase B.
Reference standard solution: 0.32 mg/mL of COMPOUND reference standard in diluent.
Sample solution: The samples were diluted to 0.32 mg/mL of COMPOUND (based on amount of COMPOUND in the initial solution) with diluent
Column: 100 mm×3.0 mm, 3 μm C18 column (e.g. YMC Triart C18 ExRS)
Detection wavelength: 246 nm

**Q.** With `CCCCOC(=O)N1CCN(C(=O)[C@H](CP(=O)(O)O)NC(=O)c2cc(N3CC[C@H](OC)C3)nc(-c3ccccc3)n2)CC1` [COMPOUND, 4-((R)-2-{[6-((S)-3-methoxy-pyrrolidin-1-yl)-2-phenyl-pyrimidine-4-carbonyl]-amino}-3-phosphono-propionyl)-piperazine-1-carboxylic acid butyl ester] as the compound, how does the antiplatelet response (platelet; single-dose subcutaneous) read?
**A.** Its antiplatelet response is “profound, rapid, and dose-related antiplatelet response”.

**Q.** And the “safety of single-dose subcutaneous administration” value (platelet)?
**A.** Its value is “safe”.

**Q.** And the blood loss [1]?
**A.** The blood loss was “significantly less blood loss than ticagrelor”.

**Q.** What about the “Content of COMPOUND” value ([2]; 32 mg/mL in water, pH 7 (NaOH), 60° C. for 1 week) of the same compound?
**A.** The value was 33.5%.

**Q.** What about the “Content of COMPOUND” value ([2]; 32 mg/mL in water, pH 7 (NaOH), t=0) of the same compound?
**A.** Its value is 98.6%.

**Q.** And the “Content of COMPOUND” value ([2]; no buffer, pH 7.0, t = 0)?
**A.** Its value is 98.55 Area %.

**Q.** What about the “Content of COMPOUND” value ([2]; no buffer, pH 7.0, t = 1 week at 60° C.) of the same compound?
**A.** The value was 33.5 Area %.

**Q.** And the “Content of COMPOUND” value ([2]; no buffer, pH 8.0, t = 0)?
**A.** Its value is 98.65 Area %.

**Q.** What about the “Content of COMPOUND” value ([2]; no buffer, pH 8.0, t = 1 week at 60° C.) of the same compound?
**A.** The value was 74.7 Area %.

**Q.** And the “Content of COMPOUND” value ([2]; no buffer, pH 9.0, t = 0)?
**A.** The value was 98.60 Area %.

**Q.** And the “Content of COMPOUND” value ([2]; no buffer, pH 9.0, t = 1 week at 60° C.)?
**A.** Its value is 88.7 Area %.

**Q.** And the “inhibition of platelet aggregation” value (platelet aggregation)?
**A.** Its value is “more than 85%”.

**Q.** What about the “pH value after storage” value [3] of the same compound?
**A.** Its value is 8.5.

**Q.** And the “Content of COMPOUND” value ([4]; 0 mM B(OH)3, pH 9.0, 75° C., 0 h)?
**A.** The value was 100.00 Area %.

**Q.** What about the “Content of COMPOUND” value ([4]; 0 mM B(OH)3, pH 9.0, 75° C., 24 h) of the same compound?
**A.** Its value is 96.16 Area %.

**Q.** And the “Content of COMPOUND” value ([4]; 0 mM B(OH)3, pH 9.0, 75° C., 48 h)?
**A.** Its value is 89.46 Area %.

**Q.** And the “Content of COMPOUND” value ([4]; 0 mM B(OH)3, pH 9.0, 75° C., 120 h)?
**A.** Its value is 64.89 Area %.

**Q.** What about the “Content of COMPOUND” value ([4]; 0 mM B(OH)3, pH 9.0, 75° C., 168 h) of the same compound?
**A.** The value was 49.45 Area %.

**Q.** And the “Content of COMPOUND” value ([4]; 20 mM B(OH)3, pH 9.0, 75° C., 0 h)?
**A.** The value was 100.00 Area %.

**Q.** And the “Content of COMPOUND” value ([4]; 20 mM B(OH)3, pH 9.0, 75° C., 24 h)?
**A.** The value was 94.61 Area %.

**Q.** And the “Content of COMPOUND” value ([4]; 20 mM B(OH)3, pH 9.0, 75° C., 48 h)?
**A.** The value was 90.72 Area %.

**Q.** And the “Content of COMPOUND” value ([4]; 20 mM B(OH)3, pH 9.0, 75° C., 120 h)?
**A.** Its value is 74.84 Area %.

**Q.** What about the “Content of COMPOUND” value ([4]; 20 mM B(OH)3, pH 9.0, 75° C., 168 h) of the same compound?
**A.** Its value is 62.18 Area %.

**Q.** What about the “Content of COMPOUND” value ([4]; 60 mM B(OH)3, pH 9.0, 75° C., 0 h) of the same compound?
**A.** Its value is 100.00 Area %.

**Q.** What about the “Content of COMPOUND” value ([4]; 60 mM B(OH)3, pH 9.0, 75° C., 24 h) of the same compound?
**A.** Its value is 96.60 Area %.

**Q.** And the “Content of COMPOUND” value ([4]; 60 mM B(OH)3, pH 9.0, 75° C., 48 h)?
**A.** The value was 90.21 Area %.

**Q.** What about the “Content of COMPOUND” value ([4]; 60 mM B(OH)3, pH 9.0, 75° C., 120 h) of the same compound?
**A.** Its value is 78.47 Area %.

**Q.** And the “Content of COMPOUND” value ([4]; 60 mM B(OH)3, pH 9.0, 75° C., 168 h)?
**A.** Its value is 68.96 Area %.

**Q.** What about the “Content of COMPOUND” value ([4]; 100 mM B(OH)3, pH 9.0, 75° C., 0 h) of the same compound?
**A.** The value was 100.00 Area %.

**Q.** What about the “Content of COMPOUND” value ([4]; 100 mM B(OH)3, pH 9.0, 75° C., 24 h) of the same compound?
**A.** The value was 97.89 Area %.

**Q.** And the “Content of COMPOUND” value ([4]; 100 mM B(OH)3, pH 9.0, 75° C., 48 h)?
**A.** Its value is 93.78 Area %.

**Q.** And the “Content of COMPOUND” value ([4]; 100 mM B(OH)3, pH 9.0, 75° C., 120 h)?
**A.** Its value is 77.85 Area %.

**Q.** And the “Content of COMPOUND” value ([4]; 100 mM B(OH)3, pH 9.0, 75° C., 168 h)?
**A.** The value was 71.33 Area %.

**Q.** What about the “Amount of COMPOUND in the test samples” value ([5]; 5° C., 1 month) of the same compound?
**A.** Its value is 16.9 mg.

**Q.** What about the “Amount of COMPOUND in the test samples” value ([5]; 5° C., 3 months) of the same compound?
**A.** The value was 16.8 mg.

**Q.** What about the “Amount of COMPOUND in the test samples” value ([5]; 5° C., 6 months) of the same compound?
**A.** The value was 16.6 mg.

**Q.** And the “Amount of COMPOUND in the test samples” value ([5]; 5° C., initial)?
**A.** The value was 16.9 mg.

**Q.** What about the “Amount of COMPOUND in the test samples” value ([5]; 25° C./60% RH, 1 month) of the same compound?
**A.** The value was 16.8 mg.

**Q.** And the “Amount of COMPOUND in the test samples” value ([5]; 25° C./60% RH, 3 months)?
**A.** Its value is 16.4 mg.

**Q.** And the “Amount of COMPOUND in the test samples” value ([5]; 25° C./60% RH, 6 months)?
**A.** The value was 16.2 mg.

**Q.** And the “Amount of COMPOUND in the test samples” value ([5]; 25° C./60% RH, 12 months)?
**A.** The value was 15.9 mg.

**Q.** What about the “Amount of COMPOUND in the test samples” value ([5]; 25° C./60% RH, initial) of the same compound?
**A.** The value was 16.9 mg.

**Q.** And the “Amount of COMPOUND in the test samples” value ([5]; 30° C./75% RH, 1 month)?
**A.** The value was 16.7 mg.

**Q.** And the “Amount of COMPOUND in the test samples” value ([5]; 30° C./75% RH, 3 months)?
**A.** The value was 16.2 mg.

**Q.** What about the “Amount of COMPOUND in the test samples” value ([5]; 30° C./75% RH, 6 months) of the same compound?
**A.** Its value is 15.9 mg.

**Q.** And the “Amount of COMPOUND in the test samples” value ([5]; 30° C./75% RH, 12 months)?
**A.** Its value is 15.2 mg.

**Q.** And the “Amount of COMPOUND in the test samples” value ([5]; 30° C./75% RH, initial)?
**A.** Its value is 16.9 mg.

**Q.** What about the “Amount of COMPOUND in the test samples” value ([5]; 40° C./75% RH, 1 month) of the same compound?
**A.** The value was 16.2 mg.

**Q.** What about the “Amount of COMPOUND in the test samples” value ([5]; 40° C./75% RH, 3 months) of the same compound?
**A.** The value was 15.1 mg.

**Q.** What about the “Amount of COMPOUND in the test samples” value ([5]; 40° C./75% RH, 6 months) of the same compound?
**A.** Its value is 13.3 mg.

**Q.** What about the “Amount of COMPOUND in the test samples” value ([5]; 40° C./75% RH, initial) of the same compound?
**A.** The value was 16.9 mg.
